{
  "source": "patent US20180140637A1",
  "about": "“EPIDERMAL NEURAL CREST STEM CELLS AS A SOURCE OF SCHWANN CELLS” (priority 2015, published 2018)",
  "key": {"SAPK2/p38": {"target": "SAPK2/p38 (Homo sapiens, UniProt Q16539)", "sequence (Q16539 whole entry)": "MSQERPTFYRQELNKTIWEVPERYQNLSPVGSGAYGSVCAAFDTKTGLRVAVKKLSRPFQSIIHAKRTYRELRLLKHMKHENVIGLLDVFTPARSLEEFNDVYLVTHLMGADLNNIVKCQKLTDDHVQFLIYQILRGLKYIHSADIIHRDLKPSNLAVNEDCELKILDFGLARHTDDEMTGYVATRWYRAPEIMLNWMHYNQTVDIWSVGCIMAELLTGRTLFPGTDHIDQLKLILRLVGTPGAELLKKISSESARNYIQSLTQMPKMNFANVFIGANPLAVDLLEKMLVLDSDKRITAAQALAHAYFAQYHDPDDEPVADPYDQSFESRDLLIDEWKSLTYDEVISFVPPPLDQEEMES", "details": "inhibitor of CK1 and ALK5; cited from earlier work"}, "hEPI-NCSC": {"tested_on": "hEPI-NCSC", "assay": "Differentiation of hEPI-NCSC into Schwann cells", "type": "cell-based, human", "experimental": "hEPI-NCSC were seeded at 2,500-5,000 cells per CELLstart™-coated 35-mm culture plate and cultured at 36.8° C., 5% CO2 and 5% O2. At differentiation Day minus 3 (D-3), cells were placed in XP medium, which is NeuroCult XF medium (Stem Cell Technologies, Grenoble, France Cat# 05761) supplemented with 10 ng/ml rhFGF2 (R&D Systems, Abingdon, UK Cat# 233-FB), 20 ng/ml rhEGF (R&D Systems Cat# 236-EG), 1× ITS+3 (Sigma, Poole, UK Cat# 1-2771), 1% (v/v) FBS (HyClone, Thermo Fisher, Cramlington, UK Cat# SH30070.02), 1× GlutaMAX (Invitrogen, Cat# 35050-038), 1× Penicillin/Streptomycin (Sigma Cat# P0781) and 2.5 μg/ml Amphotericin B (Sigma Cat# A2942).\nThe cells in XP medium were treated with 500 ng/ml recombinant human sonic hedgehog (C2411) N-terminus (rhSHH) and 500 nM CHIR99021 for two days. At differentiation Day −1, the cells were subcultured. Cells were detached with TrypLE Select, centrifuged, and plated in XP medium at a density of 30,000 cells per 35 mm culture plate and 1,000 cells per poly-D-lysine and laminin-coated 13-mm diameter glass coverslip. The next day (differentiation Day 0), cells were cultured in Alpha-modified MEM in the presence of 10% FBS and 1 mM β-mercaptoethanol (βME) for 24 hours, which was followed by treatment with 35 ng/ml all-trans-retinoic acid according to the method of Dezawa et al (2001). At differentiation Day 3, the FBS concentration was reduced to 1%. Starting at differentiation Day 0, 10 μM SB431542 was added to the culture medium. Retinoic acid and SB431542 remained in the culture medium throughout the culture period. At Day 3, 10 ng/ml rhFGF2, 5 ng/ml recombinant human PDGF-BB (rhPDGF-BB), 5 μM forskolin, 200 ng/ml recombinant human neuregulin-1 (rhNRG) were added to the culture medium. The culture medium was exchanged every 48 hours.\nAt Day 0 of differentiation, cells were treated for 24 hours with β-mercaptoethanol, and all-trans-retinoic acid was added on differentiation Day 1 according to the method of Dezawa et al (2001). Neither the three-day treatment with retinoic acid, nor five days of exposure to retinoic acid were sufficient for differentiating hEPI-NCSC into Schwann cells as judged by cell morphology and marker expression. […] At Day 0, SB431542, an inhibitor of transforming growth factor-beta 1 (TGFβ1) activin receptor-like kinases (ALKs), was also added to the culture medium (FIG. 1). […] On Day 3, FGF2, PDGF-BB, forskolin, and neuregulin-1 were added."}, "[1]": {"tested_on": "endogenous Schwann cells (non-neuronal cells) of dorsal root ganglia (DRG) explants", "assay": "Removal of non-neuronal cells from DRG explants", "type": "cell-based, rodent", "details": "for removal of endogenous Schwann cells from DRG explants: rodent DRG explants, camptothecin 20 μM three times for 48 hours each, data not shown", "experimental": "(§1) Mice ([C57BL/6-TgN(ACTbEGFP)]Osb]; ‘green mice’) (Okabe et al, 1997) and rats were handled in accordance to protocols approved by the Animal Care Committee of Newcastle University (project licence 60/3876). Whole mount DRG explants from E15.5 Wistar rat embryos were dissected as described by Päiväläinen et al. (2008) and Liu et al. (2011). Dissociated DRG cultures from adult ‘green’ mice were prepared according to Malin et al (2007) and Johnson et al (2001). To remove non-neuronal cells, DRG explants were treated with camptothecin (20 μM) three times for 48 hours each, on Days 2-5, 6-8, and 13-15.\n(§2) Co-cultures of hEPI-NCSC derived Schwann cells and rodent dorsal root ganglia (DRG) explants were prepared by first treating the DRG explants with camptothecin to eliminate non-neuronal cells. […] Neuronal toxicity of camptothecin has been documented previously (Bhanu and Kondapi, 2010).\nAnti-human nuclear antibody immunofluorescence confirmed that all P-zero immunoreactive Schwann cells were of human origin (FIG. 7A-7C; pale blue fluorescence in original)."}, "[2]": {"tested_on": "large diameter sensory neurons", "assay": "Neuronal toxicity in DRG explants", "type": "cell-based, rodent", "experimental": "as §1, §2"}},
  "data": [
    {"smiles": "NC(=O)c1ccc(-c2nc(-c3ccc4c(c3)OCCO4)c(-c3ccccn3)[nH]2)cc1", "note": "[D 4476, 4-[4-(2,3-Dihydro-1,4-benzodioxin-6-yl)-5-(2-pyridinyl)-1H-imidazol-2-yl]benzamide]", "values": [
      {"measurement": "selectivity over SAPK2/p38", "setting": "SAPK2/p38", "value": "greater than 20 fold"}
    ]},
    {"smiles": "CC1=C(/C=C/C(C)=C/C=C/C(C)=C/C(=O)O)C(C)(C)CCC1", "note": "[Retinoic acid, all-trans-retinoic acid]", "values": [
      {"measurement": "deleterious effects to the cells", "setting": "hEPI-NCSC; 35 ng/ml in the differentiation medium throughout the culture period", "value": "without any detectable deleterious effects to the cells"},
      {"measurement": "Schwann cell differentiation, judged by cell morphology and marker expression", "setting": "hEPI-NCSC; retinoic acid treatment for 3 days", "value": "not conducive to highly efficient Schwann cell differentiation"},
      {"measurement": "Schwann cell differentiation, judged by cell morphology and marker expression", "setting": "hEPI-NCSC; retinoic acid treatment for 5 days (data not shown)", "value": "not conducive to highly efficient Schwann cell differentiation"}
    ]},
    {"smiles": "NC(=O)c1ccc(-c2nc(-c3ccc4c(c3)OCO4)c(-c3ccccn3)[nH]2)cc1", "note": "[SB 431542, 4-[4-(1,3-benzodioxol-5-yl)-5-(2-pyridinyl)-1H-imidazol-2-yl]benzamide]", "values": [
      {"measurement": "effect on differentiation into Schwann cells", "setting": "hEPI-NCSC; 10 μM throughout the differentiation period", "value": "facilitated differentiation"}
    ]},
    {"smiles": "CC[C@@]1(O)C(=O)OCc2c1cc1n(c2=O)Cc2cc3ccccc3nc2-1", "note": "[camptothecin]", "values": [
      {"measurement": "removal of endogenous Schwann cells from DRG explants", "setting": "[1]", "value": "efficiently removed endogenous Schwann cells"},
      {"measurement": "non-neuronal cells in treated DRG explants", "setting": "[1]; whole DRG explants from E15.5 rat embryos, camptothecin 20 μM", "value": "clear of non-neuronal cells"},
      {"measurement": "toxicity to sensory neurons", "setting": "[2]", "value": "selectively toxic to large diameter sensory neurons"}
    ]},
    {"smiles": "Nc1ccn([C@@H]2O[C@H](CO)[C@@H](O)[C@@H]2O)c(=O)n1", "note": "[cytosine arabinoside]", "values": [
      {"measurement": "removal of endogenous Schwann cells from DRG explants", "setting": "[1]", "value": "did not"}
    ]}
  ]
}
